Data reported in patent publication US10988478B1, “Pyrazolo[1,5a]pyrimidine derivatives as IRAK4 modulators” (Genentech, Inc., priority 2015, dated 2021).

Molecular target: human IRAK4 (Homo sapiens (Human), UniProt Q9NWZ3)
Test: IRAK4 kinase inhibition, Transcreener fluorescence polarization ADP assay
Assay type: biochemical
Conditions: recombinant full-length His6-IRAK4; 125 uM ATP; 90 min; Ki computed using ATP Km 642 uM
Protocol: Compounds were assayed for inhibition of human IRAK4 and IRAK1 catalytic activity using recombinant enzyme produced from insect cells. Full-length IRAK4 protein, carrying an N-terminal His6-Tag, was obtained from Life Technologies (Carlsbad, Calif., USA). The IRAK1 construct was produced internally and was comprised of IRAK1 residues Arg194 to Ser712, preceded by an NH2-terminal His6 tag and the coding sequence for glutathione-S-transferase.

human IRAK4, sequence (Q9NWZ3 whole entry): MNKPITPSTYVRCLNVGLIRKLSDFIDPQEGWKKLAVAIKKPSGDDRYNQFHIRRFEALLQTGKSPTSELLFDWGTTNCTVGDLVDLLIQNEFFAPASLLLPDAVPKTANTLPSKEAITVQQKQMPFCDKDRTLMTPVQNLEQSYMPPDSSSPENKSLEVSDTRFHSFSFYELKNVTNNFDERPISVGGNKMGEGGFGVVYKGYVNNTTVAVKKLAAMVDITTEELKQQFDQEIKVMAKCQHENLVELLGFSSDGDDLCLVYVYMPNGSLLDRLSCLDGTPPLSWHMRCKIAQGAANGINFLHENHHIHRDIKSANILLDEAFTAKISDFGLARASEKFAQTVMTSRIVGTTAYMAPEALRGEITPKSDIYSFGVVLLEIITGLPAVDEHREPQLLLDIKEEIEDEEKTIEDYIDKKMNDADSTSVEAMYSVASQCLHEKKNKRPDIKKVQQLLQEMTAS

Ki [nM]	Molecule
3.1	CC1(C#N)CCN(c2cc3c(cc2NC(=O)c2cnn4cccnc24)CN(C[C@@H](F)C(C)(C)O)C3=O)CC1 [Example 569, N-[6-(4-Cyano-4-methyl-1-piperidyl)-2-[(2R)-2-fluoro-3-hydroxy-3-methyl-butyl]-1-oxo-isoindolin-5-yl]pyrazolo[1,5-a]pyrimidine-3-carboxamide]
0.63	CN(C)c1cc2c(cc1NC(=O)c1cnn3cccnc13)CN(C[C@@H](F)C(C)(C)O)C2=O [Example 570, N-[6-(dimethylamino)-2-[(2R)-2-fluoro-3-hydroxy-3-methyl-butyl]-1-oxo-isoindolin-5-yl]pyrazolo[1,5-a]pyrimidine-3-carboxamide]
40	N-[(2R)-6-[4-(2,2-difluoroethyl)piperazin-1-yl]-2-(hydroxymethyl)-2-methyl-3H-benzofuran-5-yl]-6-fluoro-pyrazolo[1,5-a]pyrimidine-3-carboxamide [Example 494]
17	N-[(2S)-6-[4-(2,2-difluoroethyl)piperazin-1-yl]-2-(hydroxymethyl)-2-methyl-3H-benzofuran-5-yl]-6-fluoro-pyrazolo[1,5-a]pyrimidine-3-carboxamide [Example 495]

Molecule	Ki [nM]
N-(2,2-dimethyl-6-(4-(2-oxo-2-(thiazol-2-ylamino)ethyl)piperazin-1-yl)-2,3-dihydrobenzofuran-5-yl)pyrazolo[1,5-a]pyridine-3-carboxamide [Example 441]	6
N-[2,2-Dimethyl-6-[(5-methyl-1H-pyrazol-3-yl)methoxy]-3H-benzofuran-5-yl]pyrazolo[1,5-a]pyrimidine-3-carboxamide [Example 543]	140
